Measurements taken from patent US20060069132A1, “Azolecarboxamide herbicides” (priority 2004, published 2006).

Assays:
morningglory = experiment: Test B pre-/postemergence herbicide test; type: in vivo, Ipomoea coccinea
Method in brief: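 Herbicidal effect was judged by eye on a 0–100 scale after plants stood 13 to 15 days in the greenhouse following pre- or postemergence treatment with surfactant-containing formulations.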

yellow nutsedge = experiment: Test C pre-/postemergence herbicide test; type: in vivo, Cyperus esculentus
Method in brief: (§1)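 Emerged plants at the 1- to 4-leaf stage (2–18 cm), or freshly planted seeds, received test chemicals in a non-phytotoxic solvent mixture with surfactant. Response was visually scored against controls after 12 to 14 days in the greenhouse, on a 0 (no effect) to 100 (complete control) scale.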

eastern black nightshade = experiment: Test C pre-/postemergence herbicide test; type: in vivo, Solanum ptycanthum; conditions: preemergence; for Plant response rating (0 = no effect, 100 = complete control), Nightshade: 62 g ai/ha
Method in brief: as §1

redroot pigweed = experiment: Test A pre-/postemergence herbicide test; type: in vivo, Amaranthus retroflexus; conditions: for Plant response rating, Pigweed: Postemergence; for Pigweed plant response rating: Preemergence
Method in brief: (§2)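 Both application timings were run together: directed soil spray over freshly planted seeds in sandy loam, and runoff spray onto 2–10 cm seedlings. Evaluation after ~10 days in greenhouse used a 0–100 visual scale versus untreated controls.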

kochia = experiment: Test C pre-/postemergence herbicide test; type: in vivo, Kochia scoparia
Method in brief: as §1

lambsquarters = experiment: Test B pre-/postemergence herbicide test; type: in vivo, Chenopodium album
Method in brief: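 Greenhouse pot assay with simultaneous preemergence (treated seed) and postemergence (2–18 cm seedlings) applications of surfactant-containing, non-phytotoxic solvent formulations. Response scored visually 13–15 days later on a 0–100 scale, 100 meaning complete control.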

soybean = experiment: Test C pre-/postemergence herbicide test; type: in vivo, Glycine max
Method in brief: as §1

barnyardgrass = experiment: Test A pre-/postemergence herbicide test; type: in vivo, Echinochloa crus-galli; conditions: for Plant response rating, Barnyardgrass: Postemergence; for Barnyardgrass plant response rating: Preemergence
Method in brief: as §2

cocklebur = experiment: Test C pre-/postemergence herbicide test; type: in vivo, Xanthium strumarium
Method in brief: as §1

[1] = Preemergence, 500 g ai/ha, scale 0 to 100
[2] = preemergence, 125 g ai/ha, 0 to 100 scale, 0 is no effect, 100 is complete control
[3] = 31 g ai/ha, preemergence, scale 0 to 100
[4] = 125 g ai/ha, scale 0 (no effect) to 100 (complete control), visual, 12 to 14 days, preemergence
[5] = 250 g ai/ha, scale 0 to 100 (0 no effect, 100 complete control), visual, 12 to 14 days, preemergence
[6] = 125 g ai/ha, scale 0 (no effect) to 100 (complete control), visual, 12 to 14 days
[7] = 250 g ai/ha, scale 0 to 100 (0 no effect, 100 complete control), visual, 12 to 14 days
[8] = 500 g ai/ha, 0 to 100 scale, 0 no effect, 100 complete control
[9] = 2000 g ai/ha, 0 to 100 scale, 0 no effect, 100 complete control
[10] = 500 g ai/ha, visual rating, 0 to 100 scale (0 no effect, 100 complete control)
[11] = Postemergence, 500 g ai/ha, visual rating after 13 to 15 days, scale 0 (no effect) to 100 (complete control)
[12] = postemergence, 125 g ai/ha, visual rating, scale 0 (no effect) to 100 (complete control)
[13] = Postemergence, 250 g ai/ha, scale 0 to 100, 0 no effect, 100 complete control
[14] = postemergence, 125 g ai/ha, scale 0 to 100
[15] = postemergence, 62 g ai/ha, scale 0 to 100

CCCCn1nc(C(C)(C)C)cc1C(=O)Nc1cccc(C(=O)NCC)c1 [Compound 41]
60: Plant response rating, Pigweed (redroot pigweed; [9]) | Lambsquarters plant response rating (lambsquarters; Postemergence, 125 g ai/ha, scale 0 (no effect) to 100 (complete control)) | Plant response rating, Barnyardgrass (barnyardgrass; [9])
10: Morningglory plant response rating (morningglory; [1]) | Plant response rating, Nightshade (eastern black nightshade; [6]) | Plant response rating, Soybean (soybean; [5]) | Plant response rating, Cocklebur (cocklebur; [5])
30: Plant response rating, Kochia (kochia; [5]) | Plant response rating, Barnyardgrass (barnyardgrass; [8])
0: Plant response rating, Morningglory (morningglory; [2]) | Plant response rating, Nutsedge, Yellow (yellow nutsedge; [3]) | Plant response rating (0 = no effect, 100 = complete control), Nutsedge, Yellow (yellow nutsedge; 62 g ai/ha, preemergence) | Plant response rating, Nutsedge, Yellow (yellow nutsedge; [4]) | Plant response rating, Nutsedge, Yellow (yellow nutsedge; [5]) | Plant response rating, Nightshade (eastern black nightshade; 31 g ai/ha, scale 0 to 100) | Plant response rating (0 = no effect, 100 = complete control), Nightshade (eastern black nightshade) | Plant response rating, Kochia (kochia; [3]) | Plant response rating, Soybean (soybean; [3]) | Plant response rating (0 = no effect, 100 = complete control), Soybean (soybean; 62 g ai/ha, preemergence) | Plant response rating, Soybean (soybean; [4]) | Plant response rating, Cocklebur (cocklebur; [3]) | Plant response rating (0 = no effect, 100 = complete control), Cocklebur (cocklebur; 62 g ai/ha, preemergence) | Plant response rating, Cocklebur (cocklebur; [4])
65: Pigweed plant response rating (redroot pigweed; [10])
40: Plant response rating, Pigweed (redroot pigweed; [8]) | Barnyardgrass plant response rating (barnyardgrass; [10])
20: Plant response rating (0 = no effect, 100 = complete control), Kochia (kochia; 62 g ai/ha, preemergence) | Plant response rating, Kochia (kochia; [4])
80: Plant response rating, Lambsquarters (lambsquarters; [2])
100: Lambsquarters plant response rating (lambsquarters; [1])
75: Barnyardgrass plant response rating (barnyardgrass; [9])
85: Pigweed plant response rating (redroot pigweed; [9])
70: Plant response rating, Lambsquarters (lambsquarters; [11])
90: Plant response rating, Nightshade (eastern black nightshade; [7])

CCn1nc(C(C)(C)C)cc1C(=O)Nc1ccc(F)c(C(=O)NCCF)c1 [Compound 60]
40: Plant response rating, Pigweed (redroot pigweed; [8]) | Plant response rating, Soybean (soybean; [14])
10: Morningglory plant response rating (morningglory; [12]) | Plant response rating, Morningglory (morningglory; [2]) | Plant response rating, Nightshade (eastern black nightshade; 31 g ai/ha, scale 0 to 100) | Plant response rating, Kochia (kochia; [15]) | Plant response rating, Cocklebur (cocklebur; [13]) | Plant response rating, Cocklebur (cocklebur; [14]) | Plant response rating, Cocklebur (cocklebur; postemergence, 31 g ai/ha, scale 0 to 100) | Plant response rating, Cocklebur (cocklebur; [15])
85: Barnyardgrass plant response rating (barnyardgrass; [9])
100: Pigweed plant response rating (redroot pigweed; [9])
95: Plant response rating, Pigweed (redroot pigweed; [9]) | Pigweed plant response rating (redroot pigweed; [10])
90: Plant response rating, Nightshade (eastern black nightshade; [6]) | Plant response rating, Nightshade (eastern black nightshade; [7]) | Plant response rating, Kochia (kochia; [4]) | Plant response rating, Kochia (kochia; [5]) | Plant response rating, Lambsquarters (lambsquarters; [11]) | Plant response rating, Lambsquarters (lambsquarters; [2])
50: Plant response rating, Soybean (soybean; [13]) | Barnyardgrass plant response rating (barnyardgrass; [10])
70: Plant response rating, Barnyardgrass (barnyardgrass; [9])
20: Plant response rating, Morningglory (morningglory; [11]) | Plant response rating, Kochia (kochia; [13]) | Plant response rating, Kochia (kochia; [14]) | Plant response rating, Soybean (soybean; [15])
35: Plant response rating, Barnyardgrass (barnyardgrass; [8])
5: Plant response rating, Nutsedge, Yellow (yellow nutsedge; [5]) | Plant response rating, Cocklebur (cocklebur; [5])
30: Plant response rating (0 = no effect, 100 = complete control), Nightshade (eastern black nightshade)
0: Plant response rating, Nutsedge, Yellow (yellow nutsedge; [3]) | Plant response rating (0 = no effect, 100 = complete control), Nutsedge, Yellow (yellow nutsedge; 62 g ai/ha, preemergence) | Plant response rating, Nutsedge, Yellow (yellow nutsedge; [4]) | Plant response rating, Nutsedge, Yellow (yellow nutsedge; [13]) | Plant response rating, Nutsedge, Yellow (yellow nutsedge; [14]) | Plant response rating, Nutsedge, Yellow (yellow nutsedge; [15]) | Plant response rating, Soybean (soybean; [3]) | Plant response rating (0 = no effect, 100 = complete control), Soybean (soybean; 62 g ai/ha, preemergence) | Plant response rating, Soybean (soybean; [4]) | Plant response rating, Soybean (soybean; [5]) | Plant response rating, Cocklebur (cocklebur; [3]) | Plant response rating (0 = no effect, 100 = complete control), Cocklebur (cocklebur; 62 g ai/ha, preemergence) | Plant response rating, Cocklebur (cocklebur; [4])
80: Plant response rating, Kochia (kochia; [3]) | Plant response rating (0 = no effect, 100 = complete control), Kochia (kochia; 62 g ai/ha, preemergence) | Lambsquarters plant response rating (lambsquarters; [12])
